# According to ChEMBL document CHEMBL4002623, “Synthesis and in vitro activity of dicationic indolyl diphenyl ethers as novel potent antibiotic agents against drug-resistant bacteria” (Bioorg Med Chem Lett, 2017):
# Legend:
# Pseudomonas aeruginosa [1] = assay: Antibacterial activity against Pseudomonas aeruginosa PAO1 by agar dilution method; format: functional
# Klebsiella pneumoniae [2] = assay: Antibacterial activity against extended-spectrum beta-lactamase-positive Klebsiella pneumoniae 09-25 by agar dilution method; format: functional
# Enterococcus faecalis [3] = assay: Antibacterial activity against vancomycin-sensitive Enterococcus faecalis 09-8 by agar dilution method; format: functional
# Enterobacter cloacae = assay: Antibacterial activity against Enterobacter cloacae 45301 by agar dilution method; format: functional
# Proteus mirabilis = assay: Antibacterial activity against Proteus mirabilis 09-1 by agar dilution method; format: functional
# [4] = test system: Acinetobacter calcoaceticus; assay: Antibacterial activity against Acinetobacter calcoaceticus ATCC 19606 by agar dilution method; format: functional
# Enterococcus faecalis [5] = assay: Antibacterial activity against vancomycin-resistant Enterococcus faecalis 09-9 by agar dilution method; format: functional
# Escherichia coli [6] = assay: Antibacterial activity against extended-spectrum beta-lactamase-negative Escherichia coli ATCC 25922 by agar dilution method; format: functional
# Klebsiella pneumoniae [7] = assay: Antibacterial activity against extended-spectrum beta-lactamase-negative Klebsiella pneumoniae 7 by agar dilution method; format: functional
# [8] = Cytotoxicity against HEK293T cells after 48 hrs by MTS assay; format: cell-based, HEK-293T; conditions: human
# Citrobacter freundii = assay: Antibacterial activity against Citrobacter freundii ATCC 43864 by agar dilution method; format: functional
# Klebsiella pneumoniae [9] = assay: Antibacterial activity against extended-spectrum beta-lactamase-positive Klebsiella pneumoniae ATCC 700603 by agar dilution method; format: functional
# Morganella morganii = assay: Antibacterial activity against Morganella morganii ATCC 25830 by agar dilution method; format: functional
# Pseudomonas aeruginosa [10] = assay: Antibacterial activity against Pseudomonas aeruginosa ATCC 27853 by agar dilution method; format: functional
# Enterococcus faecalis [11] = assay: Antibacterial activity against vancomycin-sensitive Enterococcus faecalis ATCC 29212 by agar dilution method; format: functional
# Serratia marcescens = assay: Antibacterial activity against Serratia marcescens 41002 by agar dilution method; format: functional
# Escherichia coli [12] = assay: Antibacterial activity against extended-spectrum beta-lactamase-negative Escherichia coli 1515 by agar dilution method; format: functional
# Escherichia coli [13] = assay: Antibacterial activity against extended-spectrum beta-lactamase-negative Escherichia coli 09-20 by agar dilution method; format: functional
# Staphylococcus aureus [14] = assay: Antibacterial activity against methicillin-sensitive Staphylococcus aureus 15 by agar dilution method; format: functional
# Proteus vulgaris = assay: Antibacterial activity against Proteus vulgaris ATCC 29905 by agar dilution method; format: functional
# Klebsiella pneumoniae [15] = assay: Antibacterial activity against extended-spectrum beta-lactamase-negative Klebsiella pneumoniae 09-8 by agar dilution method; format: functional
# [16] = test system: Staphylococcus epidermidis; assay: Potency index, ratio of vancomycin MIC to test compound MIC for methicillin-resistant Staphylococcus epidermidis 09-3; format: functional
# [17] = test system: Staphylococcus epidermidis; assay: Antibacterial activity against methicillin-sensitive Staphylococcus epidermidis ATCC 12228 by agar dilution method; format: functional
# [18] = test system: Staphylococcus epidermidis; assay: Potency index, ratio of levofloxacin MIC to test compound MIC for methicillin-resistant Staphylococcus epidermidis 09-3; format: functional
# Enterococcus faecium [19] = assay: Antibacterial activity against vancomycin-resistant Enterococcus faecium 05-8 by agar dilution method; format: functional
# Pseudomonas aeruginosa [20] = assay: Antibacterial activity against Pseudomonas aeruginosa 09-14 by agar dilution method; format: functional
# Staphylococcus aureus [21] = assay: Antibacterial activity against methicillin-sensitive Staphylococcus aureus 09-6 by agar dilution method; format: functional
# Staphylococcus aureus [22] = assay: Antibacterial activity against methicillin-resistant Staphylococcus aureus ATCC 33591 by agar dilution method; format: functional
# Staphylococcus aureus [23] = assay: Potency index, ratio of vancomycin MIC to test compound MIC for methicillin-resistant Staphylococcus aureus 09-13; format: functional
# Klebsiella pneumoniae [24] = assay: Antibacterial activity against Klebsiella pneumoniae ATCC BAA-2146 expressing NDM-1 by agar dilution method; format: functional
# Providencia rettgeri = assay: Antibacterial activity against Providencia rettgeri ATCC 31052 by agar dilution method; format: functional
# [25] = test system: Staphylococcus epidermidis; assay: Antibacterial activity against methicillin-resistant Staphylococcus epidermidis 09-3 by agar dilution method; format: functional
# Enterococcus faecalis [26] = assay: Potency index, ratio of vancomycin MIC to test compound MIC for vancomycin-resistant Enterococcus faecalis 09-9; format: functional
# Staphylococcus aureus [27] = assay: Antibacterial activity against methicillin-sensitive Staphylococcus aureus ATCC 29213 by agar dilution method; format: functional
# Enterococcus faecalis [28] = assay: Antibacterial activity against vancomycin-resistant Enterococcus faecalis ATCC 51299 by agar dilution method; format: functional
# Enterococcus faecium [29] = assay: Potency index, ratio of vancomycin MIC to test compound MIC for vancomycin-resistant Enterococcus faecium ATCC 700221; format: functional
# Klebsiella aerogenes = assay: Antibacterial activity against Enterobacter aerogenes 45102 by agar dilution method; format: functional
# Salmonella typhi = assay: Antibacterial activity against Salmonella typhi H901 by agar dilution method; format: functional, Salmonella enterica subsp. enterica serovar Typhi; conditions: Salmonella enterica
# Enterococcus faecium [30] = assay: Antibacterial activity against vancomycin-sensitive Enterococcus faecium 09-10 by agar dilution method; format: functional
# Escherichia coli [31] = assay: Antibacterial activity against extended-spectrum beta-lactamase-positive Escherichia coli 09-1 by agar dilution method; format: functional
# [32] = test system: Staphylococcus epidermidis; assay: Antibacterial activity against methicillin-sensitive Staphylococcus epidermidis 09-9 by agar dilution method; format: functional
# Enterococcus faecium [33] = assay: Antibacterial activity against vancomycin-resistant Enterococcus faecium ATCC 700221 by agar dilution method; format: functional
# Staphylococcus aureus [34] = assay: Antibacterial activity against methicillin-resistant Staphylococcus aureus 09-13 by agar dilution method; format: functional
# Staphylococcus aureus [35] = assay: Potency index, ratio of levofloxacin MIC to test compound MIC for methicillin-resistant Staphylococcus aureus 09-13; format: functional
smiles,measurement,setting,value
CNC(=N)c1ccc2cc(-c3ccc(Oc4ccc(-c5cc6ccc(C(=N)NC)cc6[nH]5)cc4)cc3)[nH]c2c1,MIC,Pseudomonas aeruginosa [1],> 128 µg/mL
same,MIC,Klebsiella pneumoniae [2],> 128 µg/mL
same,MIC,Enterococcus faecalis [3],1 µg/mL
same,MIC,Enterobacter cloacae,> 128 µg/mL
same,MIC,Proteus mirabilis,> 128 µg/mL
same,MIC,[4],> 128 µg/mL
same,MIC,Enterococcus faecalis [5],1 µg/mL
same,MIC,Escherichia coli [6],128 µg/mL
same,MIC,Klebsiella pneumoniae [7],> 128 µg/mL
same,CC50 at 48 h,[8],12.2 µg/mL
same,MIC,Citrobacter freundii,> 128 µg/mL
same,MIC,Klebsiella pneumoniae [9],> 128 µg/mL
same,MIC,Morganella morganii,128 µg/mL
same,MIC,Pseudomonas aeruginosa [10],> 128 µg/mL
same,MIC,Enterococcus faecalis [11],1 µg/mL
same,MIC,Serratia marcescens,> 128 µg/mL
same,MIC,Escherichia coli [12],128 µg/mL
same,MIC,Escherichia coli [13],> 128 µg/mL
same,MIC,Staphylococcus aureus [14],1 µg/mL
same,MIC,Proteus vulgaris,> 128 µg/mL
same,MIC,Klebsiella pneumoniae [15],> 128 µg/mL
same,Ratio,[16],4 - 8
same,MIC,[17],0.25 µg/mL
same,Ratio,[18],16 - 32
same,MIC,Enterococcus faecium [19],2 µg/mL
same,MIC,Pseudomonas aeruginosa [20],> 128 µg/mL
same,MIC,Staphylococcus aureus [21],1 µg/mL
same,MIC,Staphylococcus aureus [22],1 µg/mL
same,Ratio,Staphylococcus aureus [23],4 - 8
same,MIC,Klebsiella pneumoniae [24],> 128 µg/mL
same,MIC,Providencia rettgeri,> 128 µg/mL
same,MIC,[25],0.5 µg/mL
same,Ratio,Enterococcus faecalis [26],128 - 256
same,MIC,Staphylococcus aureus [27],1 µg/mL
same,MIC,Enterococcus faecalis [28],1 µg/mL
same,Ratio,Enterococcus faecium [29],128 - 256
same,MIC,Klebsiella aerogenes,> 128 µg/mL
same,MIC,Salmonella typhi,128 µg/mL
same,MIC,Enterococcus faecium [30],1 µg/mL
same,MIC,Escherichia coli [31],128 µg/mL
same,MIC,[32],1 µg/mL
same,MIC,Enterococcus faecium [33],0.5 µg/mL
same,MIC,Staphylococcus aureus [34],0.5 µg/mL
same,Ratio,Staphylococcus aureus [35],16 - 32
N=C(NC1CCCCC1)c1ccc2cc(-c3ccc(Oc4ccc(-c5cc6ccc(C(=N)NC7CCCCC7)cc6[nH]5)cc4)cc3)[nH]c2c1,MIC,Pseudomonas aeruginosa [1],> 128 µg/mL
same,MIC,Klebsiella pneumoniae [2],128 µg/mL
same,MIC,Enterococcus faecalis [3],4 µg/mL
same,MIC,Enterobacter cloacae,128 µg/mL
same,MIC,Proteus mirabilis,> 128 µg/mL
same,MIC,[4],64 µg/mL
same,MIC,Enterococcus faecalis [5],8 µg/mL
same,MIC,Escherichia coli [6],64 µg/mL
same,MIC,Klebsiella pneumoniae [7],128 µg/mL
same,CC50 at 48 h,[8],59.2 µg/mL
same,MIC,Citrobacter freundii,128 µg/mL
same,MIC,Klebsiella pneumoniae [9],> 128 µg/mL
same,MIC,Morganella morganii,64 µg/mL
same,MIC,Pseudomonas aeruginosa [10],> 128 µg/mL
same,MIC,Enterococcus faecalis [11],4 µg/mL
same,MIC,Serratia marcescens,128 µg/mL
same,MIC,Escherichia coli [12],128 µg/mL
same,MIC,Escherichia coli [13],128 µg/mL
same,MIC,Staphylococcus aureus [14],2 µg/mL
same,MIC,Proteus vulgaris,128 µg/mL
same,MIC,Klebsiella pneumoniae [15],128 µg/mL
same,MIC,[17],1 µg/mL
same,MIC,Enterococcus faecium [19],4 µg/mL
same,MIC,Pseudomonas aeruginosa [20],> 128 µg/mL
same,MIC,Staphylococcus aureus [21],4 µg/mL
same,MIC,Staphylococcus aureus [22],2 µg/mL
same,MIC,Klebsiella pneumoniae [24],128 µg/mL
same,MIC,Providencia rettgeri,> 128 µg/mL
same,MIC,[25],2 µg/mL
same,MIC,Staphylococcus aureus [27],4 µg/mL
same,MIC,Enterococcus faecalis [28],4 µg/mL
same,MIC,Klebsiella aerogenes,128 µg/mL
same,MIC,Salmonella typhi,64 µg/mL
same,MIC,Enterococcus faecium [30],8 µg/mL
same,MIC,Escherichia coli [31],128 µg/mL
same,MIC,[32],2 µg/mL
same,MIC,Enterococcus faecium [33],2 µg/mL
same,MIC,Staphylococcus aureus [34],2 µg/mL
N=C(c1ccc2cc(-c3ccc(Oc4ccc(-c5cc6ccc(C(=N)N7CCCC7)cc6[nH]5)cc4)cc3)[nH]c2c1)N1CCCC1,MIC,Pseudomonas aeruginosa [1],> 128 µg/mL
same,MIC,Klebsiella pneumoniae [2],64 to 128 µg/mL
same,MIC,Enterococcus faecalis [3],32 µg/mL
same,MIC,Enterobacter cloacae,64 µg/mL
same,MIC,Proteus mirabilis,128 µg/mL
same,MIC,[4],> 128 µg/mL
same,MIC,Enterococcus faecalis [5],32 µg/mL
same,MIC,Escherichia coli [6],16 µg/mL
same,MIC,Klebsiella pneumoniae [7],64 to 128 µg/mL
same,CC50 at 48 h,[8],3.2 µg/mL
same,MIC,Citrobacter freundii,128 µg/mL
same,MIC,Klebsiella pneumoniae [9],128 µg/mL
same,MIC,Morganella morganii,16 µg/mL
same,MIC,Pseudomonas aeruginosa [10],> 128 µg/mL
same,MIC,Enterococcus faecalis [11],8 µg/mL
same,MIC,Serratia marcescens,> 128 µg/mL
same,MIC,Escherichia coli [12],64 µg/mL
same,MIC,Escherichia coli [13],64 µg/mL
same,MIC,Staphylococcus aureus [14],1 µg/mL
same,MIC,Proteus vulgaris,64 µg/mL
same,MIC,Klebsiella pneumoniae [15],64 µg/mL
same,MIC,[17],0.5 µg/mL
same,MIC,Enterococcus faecium [19],8 µg/mL
same,MIC,Pseudomonas aeruginosa [20],> 128 µg/mL
same,MIC,Staphylococcus aureus [21],2 µg/mL
same,MIC,Staphylococcus aureus [22],1 µg/mL
same,MIC,Klebsiella pneumoniae [24],64 to 128 µg/mL
same,MIC,Providencia rettgeri,> 128 µg/mL
same,MIC,[25],1 µg/mL
same,MIC,Staphylococcus aureus [27],2 µg/mL
same,MIC,Enterococcus faecalis [28],8 µg/mL
same,MIC,Klebsiella aerogenes,> 128 µg/mL
same,MIC,Salmonella typhi,32 µg/mL
same,MIC,Enterococcus faecium [30],8 µg/mL
same,MIC,Escherichia coli [31],64 µg/mL
same,MIC,[32],2 µg/mL
same,MIC,Enterococcus faecium [33],2 µg/mL
same,MIC,Staphylococcus aureus [34],1 µg/mL
N=C(c1ccc2cc(-c3ccc(Oc4ccc(-c5cc6ccc(C(=N)N7CCOCC7)cc6[nH]5)cc4)cc3)[nH]c2c1)N1CCOCC1,MIC,Pseudomonas aeruginosa [1],> 128 µg/mL
same,MIC,Klebsiella pneumoniae [2],> 128 µg/mL
same,MIC,Enterococcus faecalis [3],8 µg/mL
same,MIC,Enterobacter cloacae,> 128 µg/mL
same,MIC,Proteus mirabilis,> 128 µg/mL
same,MIC,[4],> 128 µg/mL
same,MIC,Enterococcus faecalis [5],16 µg/mL
same,MIC,Escherichia coli [6],32 µg/mL
same,MIC,Klebsiella pneumoniae [7],> 128 µg/mL
same,CC50 at 48 h,[8],4.9 µg/mL
same,MIC,Citrobacter freundii,> 128 µg/mL
same,MIC,Klebsiella pneumoniae [9],> 128 µg/mL
same,MIC,Morganella morganii,16 µg/mL
same,MIC,Pseudomonas aeruginosa [10],> 128 µg/mL
same,MIC,Enterococcus faecalis [11],8 µg/mL
same,MIC,Serratia marcescens,> 128 µg/mL
same,MIC,Escherichia coli [12],128 µg/mL
same,MIC,Escherichia coli [13],64 µg/mL
same,MIC,Staphylococcus aureus [14],1 µg/mL
same,MIC,Proteus vulgaris,> 128 µg/mL
same,MIC,Klebsiella pneumoniae [15],> 128 µg/mL
same,MIC,[17],2 µg/mL
same,MIC,Enterococcus faecium [19],8 µg/mL
same,MIC,Pseudomonas aeruginosa [20],> 128 µg/mL
same,MIC,Staphylococcus aureus [21],2 µg/mL
same,MIC,Staphylococcus aureus [22],2 µg/mL
same,MIC,Klebsiella pneumoniae [24],> 128 µg/mL
same,MIC,Providencia rettgeri,> 128 µg/mL
same,MIC,[25],2 µg/mL
same,MIC,Staphylococcus aureus [27],2 µg/mL
same,MIC,Enterococcus faecalis [28],4 µg/mL
same,MIC,Klebsiella aerogenes,> 128 µg/mL
same,MIC,Salmonella typhi,64 µg/mL
same,MIC,Enterococcus faecium [30],4 µg/mL
same,MIC,Escherichia coli [31],128 µg/mL
same,MIC,[32],2 µg/mL
same,MIC,Enterococcus faecium [33],2 µg/mL
same,MIC,Staphylococcus aureus [34],2 µg/mL
